Measured values reported in patent US20150368261A1, “CONJUGATES AND SMALL MOLECULES WHICH INTERACT WITH THE CD16A RECEPTOR” (BIOINTEGRATOR LIMITED LIABILITY COMPANY, priority 2013, published 2015).

Molecular target: CD16a receptor (Homo sapiens, UniProt P08637)
Assay: Enzyme immunoassay (ELISA) for binding of proteins and conjugates with CD16a receptor
Settings: Table 2, interferon alfa and its conjugate (FIG. 17); read-out: Activity (Kd) towards CD16a receptor
Description: Determination of conjugate activity towards CD16a receptor. The experiment uses standard materials and equipment for enzyme immunoassay. Into wells of a 96-well plate CD16a was sorbed from a solution of 3.3 μg/ml in PBS in a volume of 75 μl/well. Sorption was carried out at 4° C. during 16 h. CD16a Solution was removed from the plate, wells were filled in with 2% solution of bovine serum albumin (BSA) in PBS-p (150 μl/well). Plates were incubated at 37° C. for 2 h and three times washed with PBS-p (each time by 300 μl/well). Then the wells were filled with solutions of the conjugates in PBSP, 50 μl/well in dilutions from 0.25 to 256 μg/ml. To each dilution of the conjugate three wells corresponded in the plate. In order to control non-specific sorption of samples some wells were filled with […] BSA solution. The plate was incubated 1 h at 37° C. in a shaker for ELISA (rotation speed was 180 rpm). The plate was washed five times with 300 μl/well of PBS-p and filled with a solution of a protein modified with horseradish peroxidase (by 75 μl/well in the working dilution, which is given in the description of immunoconjugate). The plate was incubated for 30 minutes, washed five times with 300 μl/well of PBS-p and filled with a solution of TMB (100 μl/well). […] The optical density in the plate wells was measured at 450 nm at room temperature. […]

CD16a receptor, sequence (P08637 17-254): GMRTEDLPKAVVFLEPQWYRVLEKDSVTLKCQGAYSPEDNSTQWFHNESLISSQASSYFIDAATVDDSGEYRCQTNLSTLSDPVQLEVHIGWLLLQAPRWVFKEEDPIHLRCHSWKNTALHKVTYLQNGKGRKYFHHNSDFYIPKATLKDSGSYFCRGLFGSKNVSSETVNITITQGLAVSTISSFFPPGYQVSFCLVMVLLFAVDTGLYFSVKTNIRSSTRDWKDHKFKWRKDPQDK

interferon alfa
Kd: 230 nM
